# Test results reported in EP1501797B1, “3-(SUBSTITUTED AMINO)-1H-INDOLE-2-CARBOXYLIC ACID ESTER AND 3-(SUBSTITUTED AMINO)-BENZO[B]THIOPHENE-2-CARBOXYLIC ACID ESTER DERIVATIVES AS INTERLEUKIN-4 GENE EXPRESSION INHIBITORS” (Aventis Pharmaceuticals Inc., priority 2002, dated 2003).
# pIC50: −log10 of the molar value.
# Columns and labels:
# IFN-γ = assay: Human primary Th2 cells, anti-CD3/anti-CD28 activated, IFN-γ ELISA; format: cell-based
# Method: Briefly, CD4^+CD45RA^+ T cells, isolated from donor peripheral blood mononuclear cells of healthy donors, are educated in the presence of anti-CD3/CD28 antibodies and various growth factors to obtain either a Thl-like or Th2-like phenotypes as determined by the known cytokine profiles of these two cell types.
# Peripheral blood mononuclear cells (PBMC) are prepared from human blood by Ficoll-Hypacque (Pharmacia). The cells are washed two times in Hanks balanced salt solution (HBSS) and counted.
# Naive T cells (CD4^+/CD45RA ) are prepared by negative selection method using following antibodies and Dynabeads: anti-CD8, anti-HLA-DR, (where HLA means human leucocyte antigen) anti-CD14, anti-CD16, anti-CD19, anti-CD45RO antibodies (all from R&D Systems, 1-2 µg/ml) are added to the cells, and the cells are kept on ice for 30 min. The cells are washed two times in HBSS, and goat anti- mouse Ig-beads, (bead:target ratio, 5:1) are added. The cells and beads are slowly rotated at 4°C for 20 min. (following the protocol supplied from Dynal). The supernatant is removed and fresh goat anti-mouse Ig-beads are added to the supernatant, which is slowly rotated at 4°C for 20 min. The cells are counted and phenotypically characterized by flow cytometric analysis.
# CD4^+/CD45RA^+ cells at a density of 10^6/ml in RPMI, is prepared and added to RPMI medium containing 10% Hyclone serum/ glutamine and 1-2 µg/ml anti-CD28 Ab. The cells are split in two aliquots. For Th1 cells: anti-IL-4 Ab (1-2 µg/ml), IFN-γ (1 µg/ml, or 5000 units/ml) are added to the wells. For Th2 cells: IL-4 (100-200 ng/ml), anti-IFN-γ neutralizing Ab (1-2 µg/ml), anti-IL-12 neutralizing Ab (1-2 µg/ml) are added into the wells. […] The cells are transferred to fresh wells and grown in 200 units/ml IL-2 for 2 weeks by feeding them every other day with IL-2 containing medium and splitting the cultures 1:2 or 1:3 as needed. The degree of polarization is determined by intracellular staining of cells with anti-IFN-γ and anti-IL-4 antibodies from Pharmingen, and using flow cytometry from Becton Dickinson (BD), according to manufacturers description. The cells are stimulated with PHA and alloantigens at day 14 and 28 as described below. Eight days after the second allostimulation the cells can be used for compound screening or frozen for future use. For compound testing, large quantities of Th1 and Th2 cells derived from a given donor (NYTh1 and NYTh2) were expanded and frozen as aliquots in liquid nitrogen. The cells are thawed and cultured as and when needed. The thawed cells are stimulated with alloantigen/PHA combination. The cells are used for compound screening after 8-10 days in culture.
# Re-stimulation by allogeneic cells: Human PBMCs, to be used as alloantigens, are isolated from freshly drawn blood by Ficoll separation. […] Cells are counted and diluted to a final concentration of 2 x 10^6/ml in medium containing 10 µg/ml PHA and 200 units/ml IL-2.
# Ninetysix well Falcon tissue culture plates (Fisher Scientific) are coated with 100 microliters per well of 10 µg/ml anti-CD3 (PharMingen) antibody in phosphate buffered saline (PBS) and stored at 4°C one day before the experiment.
# On the day of assay, anti-CD3 antibody coated plates are washed with PBS once to remove all soluble anti-CD3 antibody. […] All compounds and controls are assayed in triplicates.
# IL-13 = assay: In vivo ovalbumin (OVA) mouse model, BALF IL-13; design: species or system mice; settings: for IL-13 pg/ml (± SEM): 30 minutes before OVA challenge, BALF 24 hours, vehicle 120.2 ± 19.8
# Method: This model is designed to determine the ability of a test article to modulate an antigen-induced pulmonary inflammatory cell accumulation in sensitized Balb/c mice from Charles River Laboratories. The mice are given a two week time period from arrival date prior to sensitizations.
# On days 0, 7, 14, each animal is injected intraperitoneal (i.p.) with a 0.2 ml Ovalbumin Hydragel solution. Each animal receives 10 µg of Ovalbumin in 0.2 mL of Hydragel, aluminum hydroxide adsorptive gel containing 2% aluminum oxide. […] On day 22, BALF samples are collected from one group of animals and used for cytokine analysis. On day 24, BALF is obtained from a second group of animals and used for differential cell counts.
# Test System: Female Babl/cJ mice (Jackson Laboratories), approximately 6-9 weeks old, each weighing approximately 20 to 25 grams, are divided into ten animals per group.
# Sensitization Regimen: Mice are sensitized by an intraperitoneal injection of 10 µg ovalbumin (OVA) mixed in 4 mg aluminum hydroxide Al(OH)3 gel suspension in 0.2 ml sterile saline on Days 0, 7 and 14. This suspension is prepared one hour before intraperitoneal injection into each mouse. The animals are ready for OVA challenge on Day 21.
# Antigen Challenge: Animals are exposed to aerosolized OVA on day 21 (5% w/v in sterile saline) for 20 minutes. The aerosol is generated by a PARI-Master nebulizer, the outlet of which is connected to a small Plexiglas® chamber containing the animals. Bronchoalveolar lavage is performed on Day 22.
# Method of Study Performance: On day 24, 72 hours following aerosol OVA exposure, a separate group of animals are anesthetized with urethane (0.15 - 0.2 gm/kg) and the trachea is exposed and cannulated. […] Total cells and eosinophils are determined using a Technicon Hl and cytoslides, respectively. […]
# Mice (12 animals per group) are sensitized with 0.2 ml of an AlOH3 hydrogel suspension (2% AlOH3) containing 50 µg/ml ovalbumin on days 0, 7 and 14. […] After the OVA challenge for 24 hours, the mice underwent bronchoalveolar lavage and IL-4 and IL-13 levels in the BALF are determined by ELISA. […]
structure (smiles),measurement,setting,value
"O=C(O)c1[nH]c2ccccc2c1Nc1ccncc1 [Example 28, 3-(4-Pyridinylamino)-1H-indole-2-carboxylic acid]",activity at 0.01 µM,"IFN-γ; Homo sapiens, 0.01 µM, 48 hr, read-out: IFN-γ (% control) mean",96.9%
same,activity at 0.03 µM,"IFN-γ; Homo sapiens, 0.03 µM, 48 hr, read-out: IFN-γ (% control) mean",91.6%
same,activity at 0.1 µM,"IFN-γ; Homo sapiens, 0.1 µM, 48 hr, read-out: IFN-γ (% control) mean",91.8%
same,activity at 0.3 µM,"IFN-γ; Homo sapiens, 0.3 µM, 48 hr, read-out: IFN-γ (% control) mean",92.1%
same,activity at 1 µM,"IFN-γ; Homo sapiens, 1 µM, 48 hr, read-out: IFN-γ (% control) mean",89.2%
same,activity at 3 µM,"IFN-γ; Homo sapiens, 3 µM, 48 hr, read-out: IFN-γ (% control) mean",83.5%
same,activity at 10 µM,"IFN-γ; Homo sapiens, 10 µM, 48 hr, read-out: IFN-γ (% control) mean",75%
same,pIC50,"IFN-γ; Human primary Th2 cells, combined data from 10 different experiments",< 5.00
same,IL-13 pg/ml (± SEM),IL-13; 10 mg/kg intranasal,59.9 ± 12.7 pg/mL
same,IL-13 pg/ml (± SEM),IL-13; 30 mg/kg intranasal,15.1 ± 7.1 pg/mL
same,ED50,"IL-13; Mus musculus, mice, intranasally, FIG. 1, read-out: ED50, allergen-induced IL-13 levels in the BALF",~10 mg/kg
